Results on one compound are retold here after patent US10913773B2, “Bicyclic peptidyl inhibitor of tumor necrosis factor-alpha” (Ohio State Innovation Foundation, priority 2016, dated 2021).

A value given as a limit tells only on which side of the number the result lay.

Data set [1] deals with T1, TNFα-TNFR1 interaction (Homo sapiens, UniProt P01375).
T1 construct: made in house; host or cells: Escherichia coli (TNFα)
The data set is described as follows: ELISA inhibition of TNFα-TNFR1 interaction (immobilized biotinylated TNFα, TNFR1-HRP). It counts as binding. In general terms: In an ELISA, binding on a coated surface is turned into a signal by an enzyme label.

The subject of data set [2] is TNFα-induced cell death in WEHI-13VAR fibroblasts (recombinant human TNFα). It counts as cell-based. Here is the method: (§1) WEHI-13VAR fibroblasts were purchased from American Type Culture Collection (ATCC). For maintenance, cells were grown in full medium as RPMI-1640 supplemented with 10% FBS and 1% Abs. For toxicity assay, cells were seeded in a 96-well plate at a density of 5×10^3 cells/well in 100 μL of RPMI-1640/1% Abs supplemented with 10% or 5% FBS and allowed to grow overnight. Varying concentrations of recombinant human TNFα (0-250 ng/mL) or commercial mouse TNFα were (0-100 pg/mL) were incubated with 10 μM peptide and actinomycin D (1 μg/mL) in 100 μL of corresponding growth medium for 1 h at 37° C. Next, the medium in the 96-well plate was removed and replaced with the above fresh mixture and the cells were incubated overnight. Next day, 10 μL of the 3-(4, 5-dimethylthiazolyl-2)-2, 5-diphenyltetrazolium bromide (MTT, final concentration 0.5 mg/ml) was added to each well and incubated at 37° C. for 3 h, following by the addition of 100 μL of the MTT solubilization solution. The plate was kept in the incubator overnight to let the formazan crystals to completely dissolve, and the absorbance at 570 nm was measured on a TECAN plate reader. The LD50 was obtained as plotting the viability as a function of the TNFα concentration.
One of the biological functions of TNFα is to induce death signaling. Inhibitors against the TNFα-TNFR interaction are expected to protect cells against TNFα induced cell death. Therefore, anticachexin C1, C1-74, and C1-74-2 through C1-74-5 were compared for their ability to protect cultured WEHI-13 VAR fibroblasts, which are highly sensitive to TNFα in the presence of actinomycin-D, against TNFα-induced cell death (Khabar, K. S. A.; et al., “WEHI-13VAR: A Stable and Sensitive Variant of WEHI 164 Clone 13 Fibrosarcoma for Tumor Necrosis Factor Bioassay.” Immunol. Lett. 1995, 46:107-110). The cells were treated with a fixed concentration of peptides (10 μM) and varying concentrations of TNFα (0-1 μM), and the fraction of live cells was quantitated by the 3-(4,5-dimethylthiazol-2-yl)-2,5-diphenyltetrazolium bromide (MTT) assay. […] The MTT assay was also conducted at a fixed concentration of TNFα (0.4 ng/mL) but varying concentrations of peptides (0-10 μM).

Data set [3] concerns murine TNFα-induced cell death in WEHI-13VAR fibroblasts. Nature of the data set: MTT assay: protection of WEHI-13VAR fibroblasts against murine TNFα-induced cell death. Format: cell-based. Particulars: murine TNFα with 10 μM peptide; no inhibitor 10 ng/mL. Here is the method:
as §1
TNFα inhibitor C1-74-2 was tested for its inhibitory activity against murine TNFα, a necessary step before testing C1-74-2 in a mouse model of inflammatory bowel disease.
(In general: Formazan colour is commonly taken as a measure of viable cells.)

A short description of data set [4]: Serum stability test. Format: in vitro ADME, human. The note with it: human, diluted human serum (25%), supernatant after centrifugation; 8 h at 37° C.; read-out: Degradation in human serum. Here is the method:
Diluted human serum (25%) was centrifuged at 15,000 rpm for 10 min, and the supernatant was collected. A peptide stock solution was diluted into the supernatant to a final concentration of 5 μM and incubated at 37° C. At various time points (0-8 h), 200-μL aliquots were withdrawn and mixed with 50 μL of 15% trichloroacetic acid and 200 μL of acetonitrile. After incubation at 4° C. overnight, the mixture was centrifuged at 15,000 rpm for 10 min in a microcentrifuge, and the supernatant was analyzed by reversed-phase HPLC equipped with an analytical C18 column (Waters). The amount of remaining intact peptide (%, relative that of time zero control) was determined by integrating the area underneath the peptide peak (monitored at 214 nm).

Usually IC50 stands for the midpoint of a concentration-inhibition curve. The low end stands for greater potency, the high end for weaker potency. What is called EC50 is the concentration needed to bring the measured effect to its halfway point. In data set [1] (inhibition of TNFα-TNFR1 interaction, unlabeled peptides), `CC(=O)[C@@H]1CCCN(C(=O)[C@@H](Cc2c[nH]cn2)NC(=O)C(N)C(C)C)C1` (stereo partly drawn) [Compound C1-74-2] had an IC50 of 12 ± 2 nM. Moreover, the “Improvement of IC50 over C1-74 (fold)” value in data set [1] (relative to C1-74) is on record as about 6 fold. In data set [2], the EC50 is about 50 nM. Besides, in data set [2] (0.4 ng/mL TNFα), the “Concentration giving almost complete protection” value is at least 100 nM. Moreover, the “LD50 value of TNFα” value in data set [3] is recorded as 31 ng/mL. Besides, the metabolised at 8 h, 5 μM in data set [4] was about 15%.
